Assay results as given in patent US11484539B2, “Compounds and their uses for alleviating menopause-associated symptoms” (Estetra SPRL, priority 2018, dated 2022).

Test system: post-menopausal women
Assay: Weekly frequency of moderate to severe VMS, dose-finding study
Assay type: in vivo
Conditions: for Difference with placebo, LS adjusted mean, absolute change in weekly frequency of moderate to severe VMS / Difference with placebo, LS adjusted mean, relative change in weekly frequency of moderate to severe VMS: 15 mg E4 vs placebo; for Differences with placebo (including ineffective doses 2.5 mg and 5 mg), relative change in weekly frequency of moderate to severe VMS, LS adjusted mean / Differences with placebo (including ineffective doses 2.5 mg and 5 mg), relative change in weekly frequency of moderate to severe VMS, p_value: 15.0 mg vs 0 mg; for Relative change in weekly frequency of moderate to severe VMS, LS adjusted mean: analysis with placebo grouped with 2.5 and 5 mg; for Covariate significance, covariate trt1, p_value, relative change in weekly frequency of moderate to severe VMS: 10 mg, 15 mg vs placebo grouped with 2.5 and 5 mg
From the text: To determine the Minimum Effective Dose (MED), firstly the selection criteria required that patients presented at least 7 moderate to severe VMS/day or at least 50 moderate to severe VMS/week in the week preceding randomization. Secondly, a placebo group was included in a double-blind fashion. Thirdly, the total patient number was such that statistical significance could be obtained between separate arms of the study. Fourthly, the absolute change from baseline in weekly frequency of moderate to severe VMS was taken into account. An analysis of covariance (ANCOVA) was performed based on the untransformed change in weekly frequency of moderate to severe VMS from baseline. Finally, the change in severity from baseline was evaluated. For this, the Severity Scoring System of VMS was documented by the subjects as follows: • a score of Mild (1) for a sensation of heat without sweating; • a score of Moderate (2) for a sensation of heat with sweating/the subject is able to continue activity; and • a score of Severe (3) for a sensation of heat with sweating/which causes cessation of activity.
Enrolment was approximately 18 months. Individual subject participation was up to 27 weeks: up to 6 weeks pre-screening and washout, up to 4 weeks screening and run-in period, up to 91 days (13 weeks) of E4/placebo treatment followed by 2 weeks (14 days) of progestin therapy and a Follow up visit 1 week after completion of progestin therapy in non-hysterectomised subjects only.
To define the minimum effective dose (MED) of the oral dose of E4 by evaluating changes in frequency and in severity of moderate to severe vasomotor symptoms (VMS).
This was a prospective, multicentre, randomised, placebo-controlled, double-blinded, dose-finding study.
Eligible subjects were hysterectomised and non-hysterectomised post-menopausal women aged 40 to 65 years, inclusive, presenting at least 7 moderate to severe hot flushes/day or at least 50 moderate to severe hot flushes/week.
The subjects have met all of the following inclusion criteria at the randomization visit. These criteria were assessed during the screening period: • 1. Women aged 40 to 65 years, inclusive, presenting at least 7 moderate to severe hot flushes/day or at least 50 moderate to severe hot flushes/week in the week preceding randomization. • 2. Body Mass Index (BMI) between 18.0 and 35.0 kg/m^2, inclusive. • 3. Post-menopausal status defined as levels of follicle stimulating hormone (FSH) >40 IU/L and: • amenorrhoea for at least 12 consecutive months or, • amenorrhoea for at least 6 months with estradiol (E2)<20 pg/mL or, • at least 6 weeks post-surgical bilateral oophorectomy with or without hysterectomy with a copy of the pathology report or a statement on letterhead from the subject's physician documenting both ovaries were removed is required. • 4. For non-hysterectomised women: intact uterus with bi-layer endometrial thickness […] on TVUS. • 5. Negative pregnancy test. • 6. Good physical and mental health, in the judgement of the Principal Investigator (PI), on the basis of medical, surgical and gynaecological history, physical examination, gynaecological examination, clinical laboratory, and vital signs. • 7. Subject has provided signed and dated written informed consent before admission to the study. • 8. Subject is able to understand and comply with the protocol requirements, instructions, and protocol-stated restrictions. Exclusion Criteria:
All treatments (Estetrol, hereinafter, E4, [2.5 mg, 5 mg, 10 mg, 15 mg] capsule) were administered once daily (QD) per os for at least 12 consecutive weeks until the last biological assessments (Day 91 maximum) had been performed.
In order to analyse the data recorded in this study, treatment groups have been compared using an ANCOVA (analysis of covariance) with respect to the change in weekly frequency of moderate to severe VMS from baseline to weeks 4 and 12. […]

[1] = week 4, ANCOVA with study centre
[2] = week 12, ANCOVA with study centre

`C[C@]12CC[C@@H]3c4ccc(O)cc4CC[C@H]3[C@@H]1[C@@H](O)[C@@H](O)[C@@H]2O` [E4, 1,3,5 (10)-estratrien-3,15alpha,16alpha,17beta-tetrol] was tested, and the “Mean change from baseline in weekly frequency of moderate to severe VMS” value (“Mean change from baseline” below) (15 mg E4 QD per os, week 4) was −41.43, the “Relative change (% from baseline) in weekly frequency of moderate to severe VMS, mean” value (shortened to “Relative change (% from baseline)”) (15 mg E4 QD per os, week 4) was −67% and the “Mean change from baseline” value (15 mg E4 QD per os, week 5) was −44.34. The “Relative change (% from baseline)” value (15 mg E4 QD per os, week 5) was −72%, the “Mean change from baseline” value (15 mg E4 QD per os, week 6) was −46.58 and the “Relative change (% from baseline)” value (15 mg E4 QD per os, week 6) was −76%. The “Mean change from baseline” value (15 mg E4 QD per os, week 7) was −48.51, the “Relative change (% from baseline)” value (15 mg E4 QD per os, week 7) was −79% and the “Mean change from baseline” value (15 mg E4 QD per os, week 8) was −48.35. For the same molecule, the “Relative change (% from baseline)” value (15 mg E4 QD per os, week 8) was −79%, the “Mean change from baseline” value (15 mg E4 QD per os, week 9) was −49.62 and the “Relative change (% from baseline)” value (15 mg E4 QD per os, week 9) was −81%. For the same molecule, the “Mean change from baseline” value (15 mg E4 QD per os, week 10) was −48.88, the “Relative change (% from baseline)” value (15 mg E4 QD per os, week 10) was −80% and the “Mean change from baseline” value (15 mg E4 QD per os, week 11) was −49.92. The “Relative change (% from baseline)” value (15 mg E4 QD per os, week 11) was −82%, the “Mean change from baseline” value (15 mg E4 QD per os, week 12) was −50.94 and the “Relative change (% from baseline)” value (15 mg E4 QD per os, week 12) was −84%. The “Difference with placebo, LS adjusted mean, absolute change in weekly frequency of moderate to severe VMS” value [1] was −9.804, the “Difference with placebo, LS adjusted mean, relative change in weekly frequency of moderate to severe VMS” value [1] was −0.1564 and the “Difference with placebo, LS adjusted mean, absolute change in weekly frequency of moderate to severe VMS” value (week 4, without site effect) was −10.71. The “Difference with placebo, LS adjusted mean, relative change in weekly frequency of moderate to severe VMS” value (week 4, without site effect) was −0.1703, the “Difference with placebo, LS adjusted mean, absolute change in weekly frequency of moderate to severe VMS” value [2] was −10.09 and the “Difference with placebo, LS adjusted mean, relative change in weekly frequency of moderate to severe VMS” value [2] was −0.1585. The “Difference with placebo, LS adjusted mean, absolute change in weekly frequency of moderate to severe VMS” value (week 12, without site effect) was −10.98, the “Difference with placebo, LS adjusted mean, relative change in weekly frequency of moderate to severe VMS” value (week 12, without site effect) was −0.1723 and the “Reduction in the frequency of moderate to severe VMS when compared to baseline” value (15 mg daily dose) was “over 80%”. For the same molecule, the “Responders: patients showing a response of 50% or more (relative change from baseline in weekly frequency of moderate to severe VMS)” value (15 mg daily dose, week 12) was 91.8%, the “Responders: patients showing a response of 75% or more (weekly frequency of moderate to severe VMS)” value (15 mg daily dose, week 12) was 77.6% and the “Differences with placebo (including ineffective doses 2.5 mg and 5 mg), relative change in weekly frequency of moderate to severe VMS, LS adjusted mean” value (week 4) was −0.1797. The “Differences with placebo (including ineffective doses 2.5 mg and 5 mg), relative change in weekly frequency of moderate to severe VMS, p_value” (week 4) was 0.00218, the “Differences with placebo (including ineffective doses 2.5 mg and 5 mg), relative change in weekly frequency of moderate to severe VMS, LS adjusted mean” value (week 12) was −0.1826 and the “Differences with placebo (including ineffective doses 2.5 mg and 5 mg), relative change in weekly frequency of moderate to severe VMS, p_value” (week 12) was 0.00099. For the same molecule, the “Relative change (% from baseline)” value (15 mg, Week 12) was −84%, the “Relative change (% from baseline)” value (15 mg, week 0) was 0% and the “Relative change (% from baseline)” value (15 mg, week 1) was −22%. The “Relative change (% from baseline)” value (15 mg, week 2) was −46%, the “Relative change (% from baseline)” value (15 mg, week 3) was −57% and the “Relative change (% from baseline)” value (15 mg, week 4) was −67%. The “Relative change in weekly frequency of moderate to severe VMS, LS adjusted mean” value (15 mg, week 4) was −0.6475, the “Relative change (% from baseline)” value (15 mg, week 5) was −72% and the “Relative change (% from baseline)” value (15 mg, week 6) was −76%. For the same molecule, the “Relative change (% from baseline)” value (15 mg, week 7) was −79%, the “Relative change (% from baseline)” value (15 mg, week 8) was −79% and the “Relative change (% from baseline)” value (15 mg, week 9) was −81%. For the same molecule, the “Relative change (% from baseline)” value (15 mg, week 10) was −80%, the “Relative change (% from baseline)” value (15 mg, week 11) was −82% and the “Relative change in weekly frequency of moderate to severe VMS, LS adjusted mean” value (15 mg, week 12) was −0.8006. The “Minimal Effective Dose for the alleviation of VMS” value (perimenopausal and postmenopausal women) was “about 15 mg daily”, the “Efficacy on vasomotor parameters” value (two lowest doses tested (2.5 mg per day and 5 mg per day)) was “did not show efficacy” and the “Covariate significance, covariate trt1, p_value, relative change in weekly frequency of moderate to severe VMS” value (week 4) was 0.0039. For the same molecule, the “Covariate significance, covariate trt1, p_value, relative change in weekly frequency of moderate to severe VMS” value (week 12) was 0.0017.
